Results from the NIST ThermoML archive (doi:10.1021/je0342668).

Assay: molar heat capacity at constant pressure; xn = mol fraction of the nth substance listed
Settings: Liquid, x2 = 0.568

CCCO [propan-1-ol] + O
Settings | molar heat capacity at constant pressure [J/K/mol]
262.42 K | 106.61
264.63 K | 107.35
266.82 K | 108.31
269.02 K | 109.17
271.19 K | 109.88
273.35 K | 110.58
275.5 K | 111.1
277.64 K | 111.89
279.76 K | 112.63
281.87 K | 113.37
283.94 K | 114.17
286 K | 114.78
288.06 K | 115.38
290.08 K | 116.09
292.07 K | 116.6
294.06 K | 117.18
296.02 K | 117.95
298.02 K | 118.53
300.05 K | 119.17
302.07 K | 119.94
304.12 K | 120.61
306.15 K | 121.22
308.18 K | 121.92
310.21 K | 122.56
312.24 K | 123
314.26 K | 123.59
316.27 K | 124.29
318.28 K | 124.81
